In US10675271B2, “Clonidine and/or clonidine derivatives for use in the prevention and/or treatment of adverse side effects of chemotherapy” (ONXEO, priority 2015, dated 2020):

Test system: patients with head and neck cancer
Description: A phase II, multicentre, randomised, double-blind, placebo-controlled study was performed to compare the efficacy of the mucoadhesive buccal tablets of Example 1D, comprising 50 μg of clonidine hydrochloride, applied once daily to that of placebo in the prevention and treatment of […] following radiotherapy in patients with head and neck cancer (suffering from a newly diagnosed squamous cell carcinoma of the oral cavity, oropharynx, hypopharynx or larynx). These patients received, within 15 weeks after curative surgery, a cumulative radiation dose of radiation ranging from 50 to 70 Gray in oral cavity, based on a daily dosing between 1.8 and 2.2 Gy, combined with platinum-based chemotherapy, based on a weekly or tri-weekly cycle. Clonidine was administered in the form of a mucoadhesive tablet that was applied into the mouth, on the upper gum, for about 30 seconds, after which it remained in place for several hours. The treatment with clonidine hydrochloride started from 1 to 3 days before radiotherapy until the end of radiotherapy, for up to 8 weeks. Patients were evaluated twice a week during the radiotherapy period, then one month after stop of radiotherapy.

[1] = mucoadhesive buccal tablet of Example 1D, 50 μg clonidine hydrochloride once daily, up to 8 weeks, radiotherapy plus platinum-based chemotherapy, placebo 12.9%

For `Cl.Clc1cccc(Cl)c1NC1=NCCN1` [Clonidine], the occurrence of nausea (additional identical experiment using 100 μg of clonidine hydrochloride) was 46.9%, the “Cough (reported adverse side effect, occurrence)” value [1] was 5.5% and the “Fatigue (reported adverse side effect, occurrence)” value [1] was 9.1%. The “Headache (reported adverse side effect, occurrence)” value (mucoadhesive buccal tablet of Example 1D, 50 μg clonidine hydrochloride once daily, up to 8 weeks, radiotherapy plus platinum-based chemotherapy, placebo 14.5%) was 9.1%, the “Diarrhoea (reported adverse side effect, occurrence)” value (mucoadhesive buccal tablet of Example 1D, 50 μg clonidine hydrochloride once daily, up to 8 weeks, radiotherapy plus platinum-based chemotherapy, placebo 21.0%) was 12.7% and the “Asthenia (reported adverse side effect, occurrence)” value (mucoadhesive buccal tablet of Example 1D, 50 μg clonidine hydrochloride once daily, up to 8 weeks, radiotherapy plus platinum-based chemotherapy, placebo 24.2%) was 16.4%. The “Vomiting (reported adverse side effect, occurrence)” value (mucoadhesive buccal tablet of Example 1D, 50 μg clonidine hydrochloride once daily, up to 8 weeks, radiotherapy plus platinum-based chemotherapy, placebo 38.7%) was 25.5% and the “Nausea (reported adverse side effect, occurrence)” value (mucoadhesive buccal tablet of Example 1D, 50 μg clonidine hydrochloride once daily, up to 8 weeks, radiotherapy plus platinum-based chemotherapy, placebo 71.0%) was 52.7%.
